{"source": "patent US20260240925A1", "about": "“METHOD AND COMPOSITION FOR PREVENTING OR TREATING MYOPIA” (Tsubota Laboratory, Inc., priority 2022, published 2026)", "molecules": {"B1": {"name": "IL-4: a cytokine necessary for M2 macrophage polarization (protein, UniProt P05112 25-153, looked up)", "Interleukin-4": "HKCDITLQEIIKTLNSLTEQKTLCTELTVTDIFAASKNTTEKETFCRAATVLRQFYSHHEKDTRCLGATAQQFHRHKQLIRFLKRLDRNLWGLAGLNSCPVKEANQSTLENFLERLKTIMREKYSKCSS"}}, "assay_type_in_all_cases": "in vivo, mouse", "key": {"[1]": {"tested_on": "mice with LIM-induced myopia", "assay": "Test Example 4: mast cell stabilizer vs histamine receptor antagonist instillation in mice with LIM-induced myopia", "conditions": "for choroidal thinning (change in choroidal thickness) / myopic shift in refraction (change in refractive value) / ocular elongation (change in axial length): eye drops, pemirolast potassium 0.1% solution, levocabastine 0.025% solution, vs control group", "procedure": "(§1) The axial length, choroidal thickness, and refractivity of the mice in each group were measured. The axial length and the choroidal thickness were measured using spectral domain optical coherence tomography (Envisu R4310, manufactured by Leica). The refractivity was measured using an infrared photorefractor for mice (made by Professor Schaeffel, University of Tubingen).\nAnti-allergic drugs are broadly divided into two types: mast cell stabilizers, which inhibit mast cell degranulation, and histamine receptor inhibitors, which inhibit the action of histamine secreted due to mast cell degranulation. In order to clarify whether the myopia suppression effect of the mast cell stabilizer instillation in Test Example 3 was due to the action of the anti-allergic drug or to the inhibition of mast cell degranulation, pemirolast potassium (0.1% solution) and levocabastine solution (0.025% solution) were administered as eye drops, respectively as a mast cell stabilizer and a histamine receptor inhibitor, to mice with LIM-induced myopia, and the myopia-suppressing effects were compared."}, "[2]": {"tested_on": "C57BL6J mice", "assay": "Myopia suppression by IL-13 administration during the myopia induction period (minus lens)", "conditions": "IL-13 during the myopia induction period", "procedure": "as §1\nChanges in blood flow were measured using swept-source optical coherence tomography (OCT S-1, Canon)."}, "[3]": {"tested_on": "choroidal macrophages", "assay": "M2 macrophage polarization in the choroid after IL-13 administration, flow cytometry", "conditions": "IL-13 during the myopia induction period", "procedure": "The number of macrophages was measured using a flow cytometer (CytoFLEX S, Beckman Coulter) after digestion of the choroid and staining with F4/80 antibody and CD11b antibody. The number of M2 macrophages was measured in the same manner as for the measurement of the number of macrophages, except for the addition of a staining process with CD206 antibody."}, "[4]": {"tested_on": "lens-induced myopia model mice", "assay": "Test Example 3: mast cell stabilizer instillation in lens-induced myopia model", "conditions": "for progression of myopia: ocular instillation, minus-lens-induced myopia mouse model; for choroidal thinning (change in choroidal thickness) / myopic shift in refraction (change in refractive value) / ocular elongation (change in axial length): once daily ocular instillation, 3 weeks myopia induction, cromolyn 4% solution, pemirolast potassium 0.1% solution, vs PBS group", "procedure": "as §1\nTo verify the inhibitory effect of mast cell stabilizer instillation on myopia progression, a lens-induced myopia model was employed, wherein myopia was induced in mice by fitting the mice with minus lenses. During the myopia induction period, either cromolyn solution (4% solution) or pemirolast potassium (0.1% solution) was administered once daily by means of ocular instillation.\nFollowing the test method described above, the axial length, refractive value, and choroidal thickness were measured in mice that underwent myopia induction for 3 weeks and ocular instillation of cromolyn solution or pemirolast potassium solution, as well as in control mice, and the amounts of changes therein were calculated (FIG. 7A, B, and C)."}, "[5]": {"tested_on": "M2 macrophage markers CD163 and CD206", "assay": "M2 macrophage polarization in the choroid after IL-4 administration (Western blot, real-time PCR)", "conditions": "IL-4 10 μg/kg BW intraperitoneally", "procedure": "Therefore, IL-4, which is a cytokine necessary for M2 macrophage polarization, was administered to mice, and whether M2 polarization would occur in the choroid was evaluated by means of analyzing the expression levels of M2 macrophage markers CD163 and CD206 (FIG. 3A and B).\nC57BL6J mice (n=4 per group) were intraperitoneally administered 0.1 μg/100 μl (10 μg/kg BW) of IL-4 solution. Choroid, retina, and liver samples were taken at 0 hours (before administration) as well as 4, 24, and 48 hours after administration, and the expression of M2 macrophage marker genes was analyzed by Western blot and real-time PCR (FIG. 3). In addition, choroid and retina samples were collected at 0 hours (before administration) as well as 4 and 24 hours after administration, and the expression of oxidative-stress-related genes was analyzed by real-time PCR (FIG. 4)."}, "[6]": {"tested_on": "C57BL6 mice undergoing myopia induction", "assay": "Myopia suppression by IL-4 administration in mice undergoing myopia induction (-30 D lens)", "conditions": "IL-4 10 μg/kg BW intraperitoneally for 3 weeks", "procedure": "as §1\nAdditionally, IL-4 was administered to mice undergoing myopia induction to evaluate whether there is a myopia suppression effect (FIG. 4).\nC57BL6 mice undergoing myopia induction (−30 D lens, n=4) were intraperitoneally administered 0.1 μg/100 μl (10 μg/kg BW) of IL-4 solution for 3 weeks. C57BL6J mice undergoing myopia induction (0 D lens, −30 D lens, n=4 per group) were used as control groups."}}}
{"molecule": "C[C@@H]1CN([C@H]2CC[C@](C#N)(c3ccc(F)cc3)CC2)CC[C@]1(C(=O)O)c1ccccc1", "note": "[levocabastine]", "values": [{"measurement": "choroidal thinning (change in choroidal thickness)", "setting": "[1]", "result": "observed"}, {"measurement": "myopic shift in refraction (change in refractive value)", "setting": "[1]", "result": "observed"}, {"measurement": "ocular elongation (change in axial length)", "setting": "[1]", "result": "observed"}, {"measurement": "progression of myopia", "setting": "[1]; ocular instillation, mice undergoing myopia induction by fitting a minus lens", "result": "not suppressed"}]}
{"molecule": "IL-13: a cytokine that causes M2 polarization of macrophages", "values": [{"measurement": "choroidal thinning", "setting": "[2]", "result": "suppressed"}, {"measurement": "minus-lens-induced ocular elongation", "setting": "[2]", "result": "suppressed"}, {"measurement": "myopic shift in refraction", "setting": "[2]", "result": "suppressed"}, {"measurement": "M2 macrophage polarization", "setting": "[3]", "result": "induced"}]}
{"molecule": "Cc1cccn2c(=O)c(-c3nnn[nH]3)cnc12", "note": "[pemirolast potassium]", "values": [{"measurement": "progression of myopia", "setting": "[4]", "result": "suppression"}, {"measurement": "choroidal thinning (change in choroidal thickness)", "setting": "[4]", "result": "not observed"}, {"measurement": "myopic shift in refraction (change in refractive value)", "setting": "[4]", "result": "not observed"}, {"measurement": "ocular elongation (change in axial length)", "setting": "[4]", "result": "not observed"}, {"measurement": "choroidal thinning (change in choroidal thickness)", "setting": "[1]", "result": "not observed"}, {"measurement": "myopic shift in refraction (change in refractive value)", "setting": "[1]", "result": "not observed"}, {"measurement": "ocular elongation (change in axial length)", "setting": "[1]", "result": "not observed"}]}
{"molecule": "O=C(O)c1cc(=O)c2c(OCC(O)COc3cccc4oc(C(=O)O)cc(=O)c34)cccc2o1", "note": "[cromolyn, cromolyn sodium]", "values": [{"measurement": "progression of myopia", "setting": "[4]", "result": "suppression"}, {"measurement": "choroidal thinning (change in choroidal thickness)", "setting": "[4]", "result": "not observed"}, {"measurement": "myopic shift in refraction (change in refractive value)", "setting": "[4]", "result": "not observed"}, {"measurement": "ocular elongation (change in axial length)", "setting": "[4]", "result": "not observed"}]}
{"molecule": "B1", "values": [{"measurement": "expression of M2 markers CD163 and CD206 in the choroid", "setting": "[5]; 0, 4, 24, 48 hours", "result": "increased the expression"}, {"measurement": "M2 macrophage polarization", "setting": "[5]; choroid", "result": "confirmed"}, {"measurement": "expression of oxidative-stress-related genes", "setting": "[5]; choroid and retina, 0, 4, 24 hours, real-time PCR", "result": "suppressed expression"}, {"measurement": "expression of M2 macrophage marker genes", "setting": "[5]; gene expression analysis", "result": "increased expression"}, {"measurement": "choroidal thinning", "setting": "[6]", "result": "suppresses"}, {"measurement": "ocular elongation", "setting": "[6]", "result": "suppresses"}, {"measurement": "refractive loss", "setting": "[6]", "result": "suppresses"}]}
